Source: patent US20240376048A1 (Celgene Corporation, priority 2021, published 2024)

Molecular target: S1P5 (Homo sapiens, UniProt Q9H228)
Assay: [35S]-GTPγS binding assay (S1P5 agonism), CHO cell membranes
Type: biochemical
Conditions: membranes of CHO cells expressing recombinant S1P5 receptors, measure of S1P5 agonism
Description: CHO cells expressing recombinant S1P5 receptors were cultured in 500 cm^2 culture trays and, once confluent, rinsed and detached with cell-lifting buffer (10 mM HEPES, 154 mM NaCl, 6.85 mM EDTA, pH 7.4). Cells were then pelleted by centrifugation, resuspended, and homogenized in membrane preparation buffer (10 mM HEPES and 10 mM EDTA, pH 7.4) using a Polytron PT 1200E homogenizer (Kinematica, Luzern, Switzerland). Cellular proteins were pelleted by centrifugation at 48,000×g at 4° C. for 30 minutes. The resulting supernatant was discarded, and the pellet was re-suspended again in membrane preparation buffer, homogenized for a second time, and then centrifuged again as described above. The final cellular protein pellet was suspended in ice cold resuspension buffer (10 mM HEPES and 0.1 mM EDTA, pH 7.4), divided into aliquots, and stored at −80° C. until use.
Functional binding assays for [^35S]-GTPγS were performed in 96-well non-binding surface plates with a final volume of 200 μL. The test compounds were serially diluted in DMSO and added to assay plates using a Tecan D300E digital printer with a total volume of […]. The control sphingosine-1-phosphate (S1P) was prepared separately by preparing a 400 μM stock solution from a 100 nmol pellet of S1P in 10 mM Na2CO3 with 2% […]. The serial dilution of S1P was done using complete assay buffer (20 mM HEPES, 10 mM MgCl2, 100 mM NaCl, 1 mM EDTA, 0.1% fatty acid free bovine serum albumin (BSA), and 30 μg/mL saponin, pH 7.4) and transferred to wells already containing 0.4 μL DMSO. All the wells were then loaded to a total volume of 40 μL of complete assay buffer, except the non-specific binding (NSB) wells. For NSB wells, 40 μL/well of 50 μM GTPγS (Sigma Aldrich, cat #G8634, St. Louis, MO) was added to wells containing 0.4 μL of DMSO. The assay was started by the addition of 120 μL/well of CHO-SlP receptor membrane solution containing 40 μg/mL of membrane protein, 16.67 μM guanosine diphosphate (GDP; Sigma Aldrich, cat #G7127, St. Louis, MO), and 2.5 mg/mL of WGA PVT SPA beads in complete buffer. Assay plates were then sealed and incubated at room temperature with gentle agitation for 30 minutes. Next, 40 µL/well of 1 nM of [^35S]-GTPγS (PerkinElmer, cat #NEG030X25OUC, Waltham, MA) in basic assay buffer (20 mM HEPES, 10 mM MgCl2, 100 mM NaCl, and 1 mM EDTA, pH7.4) was added to the assay plates to yield a final concentration of 200 pM and the plates were further incubated for 40 minutes at room temperature with gentle agitation. The assay was terminated by centrifugation of the plates at 1000 rpm for 3 minutes using an Eppendorf 5810R centrifuge (Eppendorf, Hamburg, Germany) and G protein bound radioactivity was quantitated using a MicroBeta2 microplate scintillation counter (PerkinElmer, Waltham, MA). As G protein bound radioactivity directly correlates to receptor activation and coupling to the G protein, this assay is a measure of S1P5 agonism.

Chain of S1P5 (Q9H228 whole entry, species assumed): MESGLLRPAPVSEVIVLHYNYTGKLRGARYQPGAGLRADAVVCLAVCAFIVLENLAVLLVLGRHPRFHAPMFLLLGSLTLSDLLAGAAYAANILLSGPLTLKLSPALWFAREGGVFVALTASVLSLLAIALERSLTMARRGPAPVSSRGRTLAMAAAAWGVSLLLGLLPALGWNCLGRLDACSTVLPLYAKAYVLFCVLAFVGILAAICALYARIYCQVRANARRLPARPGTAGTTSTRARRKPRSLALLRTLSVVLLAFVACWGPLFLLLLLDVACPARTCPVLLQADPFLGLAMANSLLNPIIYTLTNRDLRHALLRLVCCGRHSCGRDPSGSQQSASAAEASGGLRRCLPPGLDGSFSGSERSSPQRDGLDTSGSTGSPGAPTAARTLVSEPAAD

SMILES	EC50 [nM]
CC1CC(C(=O)O)CCN1C1CCc2cc(OCc3c(Cl)cccc3Cl)ccc21 (stereo not shown) [Compound 30, 1-(5-((2,6-dichlorobenzyl)oxy)-2,3-dihydro-1H-inden-1-yl)-2-methylpiperidine-4-carboxylic acid]	10 to 100
CC1CC(C(=O)O)CC(C)N1C1CCc2cc(OCc3c(Cl)cccc3Cl)ccc21 (stereo not shown) [Compound 31, 1-(5-((2,6-dichlorobenzyl)oxy)-2,3-dihydro-1H-inden-1-yl)-2,6-dimethylpiperidine-4-carboxylic acid]	10 to 100
O=C(O)C1CCN(C2CCc3cc(OCc4c(Cl)cccc4Cl)cc(F)c32)CC1 (stereo not shown) [Compound 32, 1-(5-((2,6-dichlorobenzyl)oxy)-7-fluoro-2,3-dihydro-1H-inden-1-yl)piperidine-4-carboxylic acid]	1 to 10
O=C(O)C1CCN(C2CCc3cc(OCc4c(Cl)cccc4Cl)c(F)cc32)CC1 (stereo not shown) [Compound 33, 1-(5-((2,6-dichlorobenzyl)oxy)-6-fluoro-2,3-dihydro-1H-inden-1-yl)piperidine-4-carboxylic acid]	1 to 10
O=C(O)C1CCN(C2CCc3c2ccc(OCc2c(Cl)cccc2Cl)c3F)CC1 (stereo not shown) [Compound 34, 1-(5-((2,6-dichlorobenzyl)oxy)-4-fluoro-2,3-dihydro-1H-inden-1-yl)piperidine-4-carboxylic acid]	≤ 1
Cc1cc(OCc2c(Cl)cccc2Cl)cc2c1C(N1CCC(C(=O)O)CC1)CC2 (stereo not shown) [Compound 35, 1-(5-((2,6-dichlorobenzyl)oxy)-7-methyl-2,3-dihydro-1H-inden-1-yl)piperidine-4-carboxylic acid]	≤ 1
Cc1c(OCc2c(Cl)cccc2Cl)ccc2c1CCC2N1CCC(C(=O)O)CC1 (stereo not shown) [Compound 36, 1-(5-((2,6-dichlorobenzyl)oxy)-4-methyl-2,3-dihydro-1H-inden-1-yl)piperidine-4-carboxylic acid]	≤ 1
Cc1cc2c(cc1OCc1c(Cl)cccc1Cl)CCC2N1CCC(C(=O)O)CC1 (stereo not shown) [Compound 37, 1-(5-((2,6-dichlorobenzyl)oxy)-6-methyl-2,3-dihydro-1H-inden-1-yl)piperidine-4-carboxylic acid]	1 to 10
CC1CC(N2CCC(C(=O)O)CC2)c2ccc(OCc3c(Cl)cccc3Cl)cc21 (stereo not shown) [Compound 38, 1-(5-((2,6-dichlorobenzyl)oxy)-3-methyl-2,3-dihydro-1H-inden-1-yl)piperidine-4-carboxylic acid]	1 to 10
CC1(C)CC(N2CCC(C(=O)O)CC2)c2ccc(OCc3c(Cl)cccc3Cl)cc21 (stereo not shown) [Compound 39]	10 to 100
